In patent US7235533B2, “Compounds and their uses” (Rodaris Pharmaceuticals Limited, priority 2000, dated 2007):

Experiments:
PKA = PKA (Homo sapiens, UniProt P17612); test: PKA inhibition assay; type: biochemical
Excerpt: (§1) Methods for obtaining A-type and P-type mediators are set out in Caro et al, 1997, and in WO98/11116 and WO98/11117. Protocols for determining characteristic IPG biological activities such as PDH activation, PKA inhibition, acetylCoA activation, fructose-1,6-bis-phosphatase activity and lipogenesis are well known in the art or provided in the experimental section below.
(§2) The compounds of the invention can be tested for one or more the characteristic IPG-P and/or IPG-A activities mentioned above to determine whether they will be suitable for use a IPG mimetics or antagonists. Preferred assays measure the effect of the compounds on PDH phosphatase, PKA or lipogenesis. Protocols for these assays are provided in Caro et al^[14].

PDH phosphatase = target: T1, PDH phosphatase (Homo sapiens, UniProt Q9P0J1); test: PDH activation assay; type: biochemical; details: 100 μM compound
T1 sequence (Q9P0J1 72-537): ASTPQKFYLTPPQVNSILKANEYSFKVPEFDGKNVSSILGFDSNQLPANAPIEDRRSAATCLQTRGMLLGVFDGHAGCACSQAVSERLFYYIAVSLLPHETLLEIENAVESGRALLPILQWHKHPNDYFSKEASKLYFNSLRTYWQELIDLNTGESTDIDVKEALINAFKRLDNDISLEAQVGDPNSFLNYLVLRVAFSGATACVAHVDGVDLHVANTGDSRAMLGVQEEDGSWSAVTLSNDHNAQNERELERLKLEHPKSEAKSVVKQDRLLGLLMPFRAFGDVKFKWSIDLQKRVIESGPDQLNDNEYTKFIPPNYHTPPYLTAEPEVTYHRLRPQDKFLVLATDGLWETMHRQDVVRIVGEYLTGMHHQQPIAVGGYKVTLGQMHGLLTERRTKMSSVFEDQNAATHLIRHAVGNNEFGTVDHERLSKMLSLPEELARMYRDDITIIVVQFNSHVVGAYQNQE
Excerpt: as §1, §2

Molecule | PKA inhibition (PKA; 0.1 μM compound) [%] | PKA inhibition (PKA; 10 μM compound) [%] | PDH activation (PDH phosphatase) [%] | PKA inhibition (PKA; 1.0 μM compound) [%]
6-O-(2-Ammonio-2-deoxy-β-D-glucopyranosyl)-D-chiro-inositol-1-phosphate [RGL1019] | 32 | 31 | – | –
COC1C(O)C(O)C(OC2OC(CO)C(O)C(O)C2N)C(O)C1O [RGL1015, O-(2-amino-2-deoxy-D-glucopyranosyl)-β(1,6)-3-O-methyl-chiro-inositol] | 14 | 12 | 38 | 15
NC1C(OC2C(O)C(O)C(O)C(O)C2O)OC(CO)C(O)C1O [RGL1018, 6-O-(2-Amino-2-deoxy-β-D-glucopyranosyl)-D-chiro-inositol] | 19 | – | – | –
NC1C(OC2C(O)C(O)C(O)C(O)C2O)OC(COP(=O)(O)O)C(O)C1O [RGL1023, 1′-D-6-O-(2′-amino-2′-deoxy-6′-phosphate-α-D-glucopyranosyl)-myo-inositol] | – | – | 14 | –

Continued, values first:

PKA inhibition (PKA; 0.1 μM compound) [%] | PKA inhibition (PKA; 10 μM compound) [%] | PDH activation (PDH phosphatase) [%] | PKA inhibition (PKA; 1.0 μM compound) [%] | Molecule
17 | 2 | 65 | 34 | CO[C@H]1[C@H](O)[C@@H](O)[C@@H](O[C@H]2O[C@H](CO)[C@@H](O)[C@H](O)[C@H]2N)[C@H](O)[C@@H]1O [RGL1024, O-(2-amino-2-deoxy-D-glucopyranosyl)-α(1,6)-D-3-O-methyl-chiro-inositol]
18 | 10 | 132 | – | N[C@H]1[C@@H](O[C@H]2[C@H](O)[C@H](O)[C@H](O)[C@@H](O)[C@@H]2O)O[C@H](CO)[C@@H](OP(=O)(O)O)[C@@H]1O [RGL1027, 1′-D-6-O-(2′-amino-2′-deoxy-4′-phosphate-α-D-glucopyranosyl)-myo-inositol]
59 | 33 | 361 | – | N[C@H]1[C@@H](O[C@H]2[C@H](O)[C@H](O)[C@H](O)[C@@H](O)[C@@H]2O)O[C@H](CO)[C@@H](O)[C@@H]1OP(=O)(O)O [RGL1029, 1′-D-6-O-(2′-amino-2′-deoxy-3′-phosphate-α-D-glucopyranosyl)-myo-inositol]
48 | – | 17 | −13 | O-(2-amino-2deoxy-D-galactopyranosyl)-α(1,6)-D-3-O-methyl-chiro-inositol [RGL1025]
